Test results: patent US11091501B2, “Heterocyclic compounds as RSV inhibitors” (Enanta Pharmaceuticals, Inc., priority 2017, dated 2021)
pEC50: −log10 of the molar value.

What follows are compounds tested on Human RSV-A (“Long” strain) (assay: RSV in vitro cytoprotection assay (CPE, ATPlite) in HEp-2 cells). Settings: human respiratory syncytial virus, 96 h; HEp-2 cells, 4-day incubation, ATPlite readout; read-out: Human RSV-A (“Long” strain) EC50.
Assay type: cell-based
Method in brief: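 HEp-2 cells (8,000/well) given 2-fold serial compound dilutions in duplicate, then infected with sucrose-stabilised RSV-A Long stock. After 4 days, cell viability read by ATPlite luminescence, with a parallel uninfected plate for cytotoxicity. EC50 binned A<0.01 μM, B 0.01-0.05 μM, C>0.05 μM.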

Structure (SMILES)	pEC50
Cc1ccc(C(=O)Nc2ccc(C(=O)N3CCc4c(sc(NC(=O)c5ccccc5F)c4F)-c4ccccc43)cc2)c(N2CC3(CCOCC3)C2)n1 [Example 311]	7.30 to 8.00
Cc1ccc(NC(=O)c2sc3c(c2F)CCN(C(=O)c2ccc(NC(=O)c4cc(C)cnc4N4CC5(CCOCC5)C4)cc2)c2ccccc2-3)nc1 [Example 228]	7.30 to 8.00
O=C(Nc1ccc(C(=O)N2CCc3cc(-c4nc5ccccc5[nH]4)sc3-c3ccc(F)cc32)cc1)c1cc2c(nc1N1CC3(CCOCC3)C1)CCC2 [Example 68]	7.30 to 8.00
O=C(Nc1c(Cl)cccc1Cl)c1cc2c(o1)-c1ccccc1N(C(=O)c1ccc(NC(=O)c3cc4c(nc3N3CC5(CCOCC5)C3)CCC4)cc1)CC2 [Example 251]	> 8.00
Cc1cnc(N2CC3(CCOCC3)C2)c(C(=O)Nc2ccc(C(=O)N3CCc4cc(-c5cnsc5)sc4-c4ccc(F)cc43)cc2)c1 [Example 192]	> 8.00
O=C(Nc1c(F)cccc1F)c1cc2c(s1)-c1ccc(F)cc1N(C(=O)c1ccc(NC(=O)c3cc4ccccc4nc3N3CC4(CCOCC4)C3)cc1)CC2 [Example 16]	> 8.00
Cc1ccc(C(=O)Nc2ccc(C(=O)N3CCc4cc(C(=O)Nc5ccccc5F)sc4-c4ccc(F)cc43)cc2)c(N2CC3(CCOCC3)C2)n1 [Example 114]	> 8.00
Cc1ccc(C(=O)Nc2ccc(C(=O)N3CCc4cc(C(=O)Nc5c(F)cc(F)cc5F)sc4-c4ccc(F)cc43)cc2)c(N2CC3(CCOCC3)C2)n1 [Example 111]	> 8.00
Cc1cnc(N2CC3(CCOCC3)C2)c(C(=O)Nc2ccc(C(=O)N3CCc4cc(-c5ccccn5)sc4-c4ccc(F)cc43)cc2)c1 [Example 168]	> 8.00
Cc1cnc(N2CC3(CCOCC3)C2)c(C(=O)Nc2ccc(C(=O)N3CCc4cc(-c5ccc(=O)[nH]c5)sc4-c4ccc(F)cc43)cc2)c1 [Example 184]	> 8.00
Cc1ccc(C(=O)Nc2ccc(C(=O)N3CCc4cc(C(=O)Nc5c(F)cccc5F)oc4-c4ccccc43)cc2)c(N2CC3(CCOCC3)C2)n1 [Example 254]	> 8.00
Cc1cnc(N2CC3(CCOCC3)C2)c(C(=O)Nc2ccc(C(=O)N3CCc4c(sc(C(=O)Nc5c(C)cccc5F)c4Cl)-c4ccccc43)cc2)c1 [Example 268]	> 8.00
Cc1cnc(N2CC3(CCOCC3)C2)c(C(=O)Nc2ccc(C(=O)N3CCc4cc(NC(=O)Oc5ccccc5)sc4-c4ccccc43)cc2)c1 [Example 296]	7.30 to 8.00
Cc1cccc(F)c1NC(=O)c1sc2c(c1F)CCN(C(=O)c1ccc(NC(=O)c3cccnc3N3CC4(CCOCC4)C3)cc1)c1ccccc1-2 [Example 91]	> 8.00
O=C(Nc1ccc(C(=O)N2CCc3cc(-c4nc5ccccc5[nH]4)oc3-c3ccc(F)cc32)cc1)c1cc2c(nc1N1CC3(CCOCC3)C1)CCC2 [Example 244]	> 8.00
Cc1cnc(N2CC3(CCOCC3)C2)c(C(=O)Nc2ccc(C(=O)N3CCc4cc(C(=O)Nc5c(Cl)cncc5Cl)sc4-c4ccc(F)cc43)cc2)c1 [Example 131]	> 8.00
O=C(Nc1c(F)cc(F)cc1F)c1cc2c(s1)-c1ccc(F)cc1N(C(=O)c1ccc(NC(=O)c3cccnc3N3CC4(CCOCC4)C3)cc1)CC2 [Example 22]	> 8.00
O=C(Nc1c(F)cccc1Cl)c1cc2c(s1)-c1c(cc(F)c(F)c1F)N(C(=O)c1ccc(NC(=O)c3cccnc3N3CC4(CCOCC4)C3)cc1)CC2 [Example 80]	7.30 to 8.00
O=C(Nc1c(F)cc(F)cc1Cl)c1cc2c(s1)-c1ccc(F)cc1N(C(=O)c1ccc(NC(=O)c3ccc(C(F)(F)F)nc3N3CC4(CCOCC4)C3)cc1)CC2 [Example 23]	7.30 to 8.00
Cc1cnc(N2CC3(CCOCC3)C2)c(C(=O)Nc2ccc(C(=O)N3CCc4c(sc(C(=O)Nc5ccccc5F)c4Cl)-c4ccccc43)cc2)c1 [Example 270]	> 8.00
O=C(Nc1ccc(C(=O)N2CCc3cc(-c4nc5cccc(F)c5[nH]4)sc3-c3ccc(F)cc32)cc1)c1cccnc1N1CC2(CCOCC2)C1 [Example 40]	7.30 to 8.00
Cc1cnc(N2CC3(CCOCC3)C2)c(C(=O)Nc2ccc(C(=O)N3CCc4cc(-c5ccncc5F)sc4-c4ccc(F)cc43)cc2)c1 [Example 162]	> 8.00
